A short description of series [1]: Stability of ready-to-use PAA solution, pH adjusted with ethanolamine, with or without chelant, heated at 56° C. for one hour. In kind it is physicochemical. To be noted: initial PAA 0.35%, water hardness 200 ppm, pH 5 with ethanolamine. The source says:
(§1) In these studies, peracetic acid (PAA) was combined with hard water having a water hardness of 200 parts per million (“ppm”) such that the resulting solution included a 0.35% concentration of PAA. The pH of the solution was adjusted to 5 using a pH modifier. In a first batch of the solution, the pH modifier used was ethanolamine. In a second batch of the solution, the pH modifier used was disodium phosphate. Test specimens from these two batches were created by individually adding chelants thereto. The chelants used in these studies are those used for removing ions (e.g. Calcium and Magnesium) from hard water, and included tetrasodium EDTA, TRILON® M (methylglycinediacetic acid trisodium salt (MGDA-Na3)), TRILON® C (diethylenetriaminepentaacetic acid pentasodium salt (DTPA-Na5)), sodium citrate, and DISSOLVINE® GL (glutamic acid diacetic acid tetrasodium salt (GLDA-Na4)). Test specimens from these two batches were also created that lacked any such chelants. In some instances, test specimens were created for different concentrations of certain of these chelants. Table 1 reflects test specimens made from the first batch of the solution. Table 2 reflects test specimens made from the second batch of the solution. The tables also reflect the concentration of each chelant in each specimen as a percentage. Each specimen was heated at 56° C. for one hour. At the end of the hour, the PAA concentration was determined. The final concentration of PAA is provided in Table 1 and Table 2 alongside the change in the PAA concentration as determined at the end of the hour (“Δ PAA %”).

Series [2] can be described thus: Stability of ready-to-use PAA solution, pH adjusted with disodium phosphate, with or without chelant, heated at 56° C. for one hour. In kind it is physicochemical. To be noted: initial PAA 0.35%, water hardness 200 ppm, pH 5 with disodium phosphate.
Excerpt: as §1

`O=C([O-])CC[C@@H](C(=O)[O-])N(CC(=O)[O-])CC(=O)[O-].[Na+].[Na+].[Na+].[Na+]` [Dissolvine (liquid), glutamic acid diacetic acid tetrasodium salt]: the “Final PAA Concentration (%)” value is 0.23% in series [1] (chelant concentration 0.2%), 0.17% in series [1] (chelant concentration 0.6%), 0.29% in series [2] (chelant concentration 0.2%) and 0.25% in series [2] (chelant concentration 0.6%). In addition, the “Δ PAA %” value in series [1] (chelant concentration 0.2%) is −34%; in series [1] (chelant concentration 0.6%), −51%; in series [2] (chelant concentration 0.2%), −17%; in series [2] (chelant concentration 0.6%), −29%.
For `O=C([O-])CN(CCN(CC(=O)[O-])CC(=O)[O-])CC(=O)[O-].[Na+].[Na+].[Na+].[Na+]` [Na4EDTA, tetrasodium EDTA, reference compound], the “Final PAA Concentration (%)” value in series [1] (chelant concentration 0.1%) was 0.21%; in series [1] (chelant concentration 0.4%), 0.14%; in series [2] (chelant concentration 0.1%) it was 0.28%; in series [2] (chelant concentration 0.4%), 0.18%. Moreover, the “Δ PAA %” value in series [1] (chelant concentration 0.1%) is −40%; in series [1] (chelant concentration 0.4%) it was −60%; in series [2] (chelant concentration 0.1%), −20%; in series [2] (chelant concentration 0.4%), −49%.
In the case of `O=C([O-])CN(CCN(CC(=O)[O-])CC(=O)[O-])CCN(CC(=O)[O-])CC(=O)[O-].[Na+].[Na+].[Na+].[Na+].[Na+]` [Trilon C (liquid), diethylenetriaminepentaacetic acid pentasodium salt], in series [1] (chelant concentration 0.2%), the “Final PAA Concentration (%)” value is recorded as 0.22% and the “Δ PAA %” value was −37%. In series [2] (chelant concentration 0.2%), the “Final PAA Concentration (%)” value is 0.26% and the “Δ PAA %” value is given as −26%.
As to `CC(C(=O)[O-])N(CC(=O)[O-])CC(=O)[O-].[Na+].[Na+].[Na+]` (stereo not drawn) [Trilon M (liquid), methylglycinediacetic acid trisodium salt], the “Final PAA Concentration (%)” value was found to be 0.19% in series [1] (chelant concentration 0.6%), 0.3% in series [2] (chelant concentration 0.2%) and 0.26% in series [2] (chelant concentration 0.6%). Further, the “Δ PAA %” value is on record as −46% in series [1] (chelant concentration 0.6%), −14% in series [2] (chelant concentration 0.2%) and −26% in series [2] (chelant concentration 0.6%).
As for `O=C([O-])CC(O)(CC(=O)[O-])C(=O)[O-].[Na+].[Na+].[Na+]` [sodium citrate, reference compound], in series [1] (chelant concentration 0.4%), the “Final PAA Concentration (%)” value turned out to be 0.23% and the “Δ PAA %” value is −34%. Also, in series [2] (chelant concentration 0.4%), the “Final PAA Concentration (%)” value worked out at 0.26% and the “Δ PAA %” value is on record as −26%.
